Patent US8337851B2, “Methods of monitoring the efficacy of anti-CD40 antibodies in treating a subject for a CD40-expressing cancer” (Novartis AG, priority 2005, dated 2012)
Entries after “also recorded” stand apart in the source; their conditions may differ.

Key:
[1] = test system: IM-9 tumor cells (a human multiple myeloma cell line); test: Staged orthotopic IM-9 xenograft survival model; type: in vivo, SCID mice; conditions: 0.1, 1 or 10 mg/kg i.p. once a week from 7 days after implantation
Method: SCID mice were inoculated subcutaneously with IM-9 tumor cells (a human multiple myeloma cell line expressing both CD40 and CD20) in 50% […]™ at 5×10^6 cells per mouse. In unstaged models, treatment was initiated one day after tumor implantation. […] Alternatively, tumor-bearing mice were injected with bortezomib at 0.5 mg/kg or 1 mg/kg intravenously once a week. Data were analyzed using the log-rank test.
In staged models, treatment was initiated 7 days after tumor cell implantation. […] Alternatively, tumor-bearing mice were injected with bortezomib at 0.5 mg/kg intravenously. Data were analyzed using the log-rank test.

[2] = test system: CD40-expressing target cells; test: ADCC activity of anti-CD40 antibodies (Table 1); type: cell-based
[3] = test system: cancer cells from NHL and CLL patients; test: In vitro CD40 ligand-mediated proliferation of patient cancer cells; type: cell-based, human
Description: 4, 2003, Nov. 26, 2003, and Apr. 27, 2004, and assigned U.S. Patent Application Nos. 60/517,337, 60/525,579, and 60/565,710, respectively, and International Patent Application No. PCT/US2004/037152, also entitled “Antagonist, Anti-CD40 Monoclonal Antibodies and Methods for Their Use,” filed Nov. 4, 2004; the contents of each of which are herein incorporated by reference in their entirety.

soluble CD40 = soluble CD40 (Homo sapiens, UniProt P25942); test: ELISA-type binding to soluble CD40; conditions: ELISA-type assays
Chain of soluble CD40 (P25942 21-193 limits assumed): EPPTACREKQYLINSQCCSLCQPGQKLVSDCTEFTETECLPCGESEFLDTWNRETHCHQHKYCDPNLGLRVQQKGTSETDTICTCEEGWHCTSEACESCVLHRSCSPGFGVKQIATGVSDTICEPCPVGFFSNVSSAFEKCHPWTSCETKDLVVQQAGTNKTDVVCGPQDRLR
Description: 2, 2000, and PCT International Application No. PCT/US01/30857, also titled “Human Anti-CD40 Antibodies,” filed Oct. 2, 2001, both of which are herein incorporated by reference in their entirety.

ARH-77 cells = test: ADCC, Calcein release with human NK cells, ARH-77; type: cell-based; conditions: NK:target 10 to 1, 4 hours, read-out: ED50 (percent specific lysis)
Method: Human MM cell lines, KMS-12-BM, IM-9, and ARH-77, were washed 3 times using R2 medium (Pheno red-free RPMI with 2% FBS) and re-suspended in R10 medium (Pheno red-free RPMI with 10% FBS) at the density of 1×10^6/mL. Cells were labeled by adding Calcein AM (final concentration […]) and incubating for 30 minutes at 37° C. in a humidified atmosphere with 5% CO2. Purified human NK cells and Calcein-labeled target cells were mixed in R10 medium at the ratio of 10 to 1 (5×10^4 NK cells and 5×10^3 target cells in […]) and added in U-bottom 96 well plate (Packard's Instrument, Meriden, Conn.). […] 1% NP-40 was added in 3 wells for the maximum cell lysis. Cells were incubated for 4 hours without disturbance at 37° C. in a humidified atmosphere with 5% CO2. The plate was then centrifuged at 300 rpm without brake for 5 minutes. […] supernatant was transferred into a new 96 well plate. The released Calcein in the supernatant was measured in arbitrary fluorescent unit (AFU) at 485 nm excitation and 535 nm emission using Tecan SpectraFluor Plus (Tecan U.S., Inc., Research Triangle, N.C.). The percent of specific lysis was calculated as: 100×(AFU test−AFU spontaneous release)/(AFU maximal release−AFU spontaneous release).
The ED50 was determined for each cell line by plotting the log of antibody concentration versus the percent specific lysis (see FIG. 16).

normal human B cells = test: Western blot of survival and signaling markers in normal human B cells; type: cell-based; conditions: 10 μg/ml, 24 hr, 2 μg/ml rhsCD40L, vs hIgG1
Description: Cells were lysed and whole cell lysates resolved by SDS-PAGE and Western blotting using antibodies specific to human cPARP, Mcl-1, Bcl-xl, p-Akt, and p-p38 MAPK. All membranes were stripped and re-probed for either β-actin or AKT or p38 MAPK total protein, as appropriate.

B-CLL cells [4] = test: cPARP flow cytometry of CLL patient PBMCs; type: cell-based, human; conditions: 24 hours, 10 μg/ml
Method: [formula] cPARP analysis by flow cytometry was performed after 24 hours in culture. Cells were treated with FACSLysis buffer (BD Biosciences) and frozen. After fixation in 1% formaldehyde for 45 min, cells were washed and incubated with PE-conjugated mouse anti-human CD19 for 30 min at room temperature (RT). Cells were then permeabilized using 70% ethanol on ice for 30 min and stained for 30 min at RT with rabbit anti-human cPARP antibody or isotype control rabbit IgG along with PerCP-Cy5.5-labeled mouse anti-human CD5. This was followed by incubation with goat anti-rabbit IgG-AlexaFluor 647 for 30 min at RT before fixing with 1% formaldehyde and analyzing by flow cytometry. Percent blockade was calculated as follows: […]

[5] = test system: IM-9 tumor cells (a human multiple myeloma cell line); test: Unstaged orthotopic IM-9 xenograft conditional survival model; type: in vivo, SCID mice; conditions: 0.1, 1 or 10 mg/kg i.p. once a week from one day after implantation
B-CLL cells [6] = test: CellTiter-Glo viability of CLL patient PBMCs; type: cell-based, human; conditions: 72 hours, 10 μg/ml
Method: Cell viability was determined after 72 hours using the CellTiter-Glo® Luminescent Cell Viability Kit (Promega, Madison, Wis.), which measures cellular ATP, and expressed as Relative Luminescence Units (RLU). Percent blockade was calculated as follows: […]

[7] = test system: human lymphocytes from normal subjects; test: Proliferation of human lymphocytes; type: cell-based
B-CLL cells [8] = test: p38 MAPK signaling in B-CLL cells, four-hour experiment; type: cell-based, human; conditions: 4 hours
Method: In the four-hour experiment, approximately 0.8×10^6 B-CLL cells per well were serum starved in 1% FBS-containing media for 4 hours. […] Cell lysates were collected before and 20 minutes after CD40L stimulation. Western blot analysis with antibodies against specific proteins shown were conducted, and equal loading was evaluated by probing with antibodies to total p38 (t-p38) and β-actin.

[9] = test system: CLL cells obtained from patients with CLL; test: CD40L-induced production of VEGF in CLL cells; type: cell-based, human
Description: In another experiment, CD40L-induced production of VEGF in normal B cells and CLL cells obtained from patients with CLL is examined in a manner similar to that described above.

[10] = test system: B-CLL cells from patients; test: Flow cytometry of cleaved PARP and TUNEL in B-CLL cells; type: cell-based, human; conditions: 10 μg/ml with 1 μg/ml sCD40L, 24 hours
Method: In this experiment, 0.4×10^6B-CLL cells from patients were stimulated with 1 μg/ml sCD40L (Alexis Corp., Bingham, Nottinghamshire, UK). CHIR12.12 (10 μg/ml) or control IgG was then added. […] After fixation and permeabilization, the cells were stained for cleaved PARP and TUNEL methods.

Substance: CHIR-12.12: fully human anti-CD40 monoclonal antibody of the IgG1 isotype from hybridoma cell line 153.8E2.D10.D6.12.12 (ATCC PTA-5543)
- survival of tumor-bearing mice [1]: prolonged survival of tumor-bearing mice
- killing of CD40-expressing target cells by ADCC [2]: able to kill CD40-expressing target cells
- effect on CD40 ligand-mediated proliferation of cancer cells [3]: inhibiting in vitro CD40 ligand-mediated proliferation of cancer cells from NHL and CLL patients
- binding to soluble CD40 (soluble CD40): bind soluble CD40
- EC50 (ARH-77 cells): 0.0239 nM
- CD40L-mediated effects on cPARP, Mcl-1, Bcl-xl, p-Akt, p-p38 (normal human B cells): blocked these CD40L-mediated effects on normal B cells
- blockade of CD40L-promoted survival (B-CLL cells [4]): in each case, these effects were blocked
- survival of tumor-bearing mice [5]: prolonged the survival of tumor-bearing mice
- blockade of CD40L-promoted survival (B-CLL cells [6]): in each case, these effects were blocked
- CD40L-induced lymphocyte proliferation [7]: inhibits CD40L-induced lymphocyte proliferation
- induction of lymphocyte proliferation (agonist activity) ([7]; antibody alone): do not induce strong proliferation of human lymphocytes from normal subjects; also recorded: does not induce the proliferation of human peripheral blood lymphocytes
- Phospho-IKKα/β activation by CD40L (B-CLL cells [8]; 10 μg/mL): inhibited
- p38 activation by CD40L (B-CLL cells [8]; SB203580 30 and 60 μM, CHIR-12.12 10 μg/mL): fully inhibited
- CD40L-induced production of VEGF [9]: inhibit CD40L-induced production of VEGF
- percentage of cells positive for cleaved PARP or TUNEL [10]: the percentage of positive cells for cleaved PARP or TUNEL returned to the levels seen without sCD40L stimulation
